Assay [1] has as its system patients with PH (NYHA functional class III). Description: Clinical Study 2: 12-week placebo-controlled study in patients with PH. It counts as in vivo, human. The procedure:
In one embodiment of the invention, thalidomide is administered in a single or divided daily doses in an amount of from about 200 to about 800 mg/day. The compound is administered to patients with PH for 12 weeks, who are subsequently evaluated for a decline in walk distance, dyspnea score, functional class, pulmonary hemodynamic response. The first study enrolls 32 patients with PH. Patients are all in modified New York Heart Association functional class III at the onset of the study. Patents are maximally treated and are stable on conventional therapy, including calcium channel antagonists and diuretics. Two thirds of patients receive 400 mg of thalidomide for four weeks followed by 800 mg of the compound for eight weeks. One third of patients receive placebo. The primary efficacy endpoint is a 6-minute walk distance. Patients receiving the compound of the invention walk an average of 70 meters farther after 12 weeks while placebo patients have a decline in walk distance. In addition, the treated patients have improvements in dyspnea score and functional class compared with placebo patients. Pulmonary hemodynamic measurements reveal decreases in pulmonary arterial pressure and pulmonary vascular resistance, and increase in cardiac output after 12 weeks of the treatment, compared with worsening of pulmonary hemodynamics in placebo patients. All these changes in treated patients are highly significant compared with placebo.

In assay [2] the test system is patients with PH, WHO functional class III or IV. Description: Expanded Study: 16-week placebo-controlled study in 213 PH patients. It counts as in vivo, human. The procedure:
On the basis of the results of the above study 2, the clinical study is expanded with additional 213 PH patients for at least 16 weeks. The study is conducted with patients with PH, WHO functional class III or IV. Two hundred thirteen patients are randomized to receive either 200 mg bid or 400 mg bid of thalidomide or placebo in a 1:1:1 ratio. The primary endpoint, a 6-minute walk distance, is evaluated at 16 weeks. The treated patients walk 36.4 meters further at 16 weeks compared to a 7.8 meter reduction in walk distance in the placebo group, for a treatment effect of 44.2 meters. Clinical worsening, defined by death, premature withdrawal from study, hospitalization for worsening of PH or institution of epoprostenol, occur in 37% of placebo-treated patients, compared with 11% of the patients treated with the compound of the invention.

Setting [3] is: 12 weeks, compared with placebo patients.
Setting [4] is: after 12 weeks of treatment, compared with placebo.

Turning to `O=C1CCC(N2C(=O)c3ccccc3C2=O)C(=O)N1` (racemic) [thalidomide, 2-(2,6-dioxo-3-piperidinyl)-1H-isoindole-1,3(2H)-dione], in assay [1] (setting [3]), the dyspnea score entry is reported as “improvements” and the functional class entry is on record as “improvements”. In assay [1] (setting [4]), the cardiac output entry is reported as “increase”, the pulmonary arterial pressure result is given as “decreases” and the pulmonary vascular resistance entry was “decreases”. In addition, the “6-minute walk distance, average increase” value in assay [1] (after 12 weeks, 400 mg for four weeks then 800 mg for eight weeks, PH patients) is 70 meters. For the same compound, in assay [2] (at 16 weeks, 200 mg bid or 400 mg bid), the “6-minute walk distance, increase” value is on record as 36.4 meters. Further, the “6-minute walk distance, treatment effect versus placebo” value in assay [2] (at 16 weeks, treated minus placebo (7.8 meter reduction)) stood at 44.2 meters. Also, the “clinical worsening (death, premature withdrawal, hospitalization for worsening of PH or institution of epoprostenol), share of patients” value in assay [2] (treated patients, 37% in placebo-treated patients) is 11%. Moreover, the functional class entry in assay [2] (treated versus placebo patients) is “improved significantly more”.

The values above are taken from patent US20050239719A1, “Methods of using and compositions comprising thalidomide for the treatment and management of pulmonary hypertension” (priority 2004, published 2005).
